Assay results: publication PMC11990301, “Lipidated DAPEG Polymers as a Non-Toxic Transfection Agent—Influence of Fatty Acid Side Chain on Transfection Efficacy” (Molecules, 2025)

Assays:
[1] = Dynamic light scattering (DLS) particle size of compounds and compound-pmaxGFP complexes; format: physicochemical; settings: 25 °C, n = 3; for hydrodynamic diameters, pMAXGFP (-) / PDI (polydispersity index), pMAXGFP (-): compound alone without plasmid, in water; for hydrodynamic diameters, pMAXGFP (-): 2.5 mg/mL as printed, 10 s runs, Litesizer DIA 500, mean ± SD; for PDI (polydispersity index), pMAXGFP (-) / PDI (polydispersity index), pMAXGFP (+) / hydrodynamic diameters, pMAXGFP (+): mean ± SD; for PDI (polydispersity index), pMAXGFP (+) / hydrodynamic diameters, pMAXGFP (+): compound-DNA plasmid complex, N/P 1.5/1, in water
Description: Dynamic light scattering (DLS) measurements were performed using the Litesizer DIA 500 (Anton Par, Ostfildern-Scharnhausen, Germany). The concentration of the compounds in water was 2.5 mg/mL, with the inclusion of a DNA plasmid to maintain a charge-to-ratio of 1.5/1 N/P. For system 1:1.5, the concentration of each compound was 0.61 µM; for 3:1–1.21 µM; for 9:1–3.64 µM. The DNA plasmid concentration remains constant and equal at 0.46 nM. The particle size series mode was used in a cuvette with a volume of […]. Each run was recorded at 25 °C for 10 s.

[2] = tested on: HEK-293T cell line (spheroids); assay: Transfection efficacy of GFP plasmid (pmaxGFP) in 3D model; format: cell-based; settings: HEK-293T spheroids
Description: (§1) The HEK-293T cell line was cultured using both 2D and 3D techniques. The non-adherent method of forming spheroids was used. Cells (750 cells per well) were seeded in a 96-well U-shaped plate BIOFLOAT (Sarstedt, Nümbrecht, Germany). The HEK-293T cells were cultured at 37 °C in 5% CO2 in Dulbecco’s modified Eagle medium (DMEM; high glucose) supplemented with 10% fetal bovine serum (FBS) and 1% penicillin–streptomycin solution containing 100 units of penicillin and 100 µg/mL of streptomycin. After three days of culturing, the spheroids were formed and ready for further experiments.
Cells were cultured for 72 h under the conditions described above. Mixtures of the selected compounds and pmaxGFP plasmid in N/P ratios (charge peptidomimetic/charge pmaxGFP) of 1.5, 3:1, and 9:1 were incubated for 30 min and used immediately. An appropriate control with plasmid was employed. To each well with spheroids, 10 µL of the mixture described above was added in triplicate up to 90 µL of the full medium. The plate was then incubated at 37 °C with 5% CO2 for 5 h, washed (3 × medium), and cultured for another 72 h. After this process, the cells were inspected under a fluorescent microscope (Olympus IX51 fluorescence microscope (Olympus, Tokyo, Japan)). The molar concentration of particular components was equal to, for system 1:1.5, the concentration of each compound at 0.61 µM; for 3:1–1.21 µM; for 9:1–3.64 µM. The DNA plasmid concentration remains constant and equal at 0.46 nM.

[3] = tested on: spheroids of HEK-293T cells; assay: Viability in 3D model, CellTiter Glo 3D (ATP); format: cell-based; settings: HEK-293T spheroids, 24 h incubation, tested 0, 1, 2, 5, 10, 20 and 50 µM, CellTiter Glo 3D luminescence; n = 3
Description: as §1
After culturing for 72 h, spheroids of HEK-293T cells were incubated with increasing amounts of the appropriate compounds (0, 1, 2, 5, 10, 20, and 50 µM) in the medium described above at 37 °C with 5% CO2. After 24 h, the plate was incubated at room temperature (RT) for 30 min, followed by the addition of 100 μL of CellTiter Glo 3D Cell Viability Assay reagent (Promega, Fitchburg, WI, USA). The plate was then covered from light and shaken for 30 min. Next, the contents of each well were transferred to a white flat bottom plate (Nunc A/S, Thermo Fisher, Odense, Denmark) and luminescence was read at 560 nm using the CLARIOstar (BMG Labtech, Ortenberg, Germany).

[4] = Complex stability assessment by UV spectra (Nanodrop); format: physicochemical; settings: Nanodrop UV-Vis, time points 0, 0.5, 1, 2.5 and 5 h, transfection buffer and concentrations (Figure S2)
Description: The analysis of all obtained complexes was conducted using a Nanodrop 2000c UV-Vis spectrophotometer (Thermo Scientific, Waltham, MA, USA) at designated time points from 0 to 5 h (0, 0.5, 1, 2.5, and 5). The concentration of the individual components (DNA and the compound) was used as a reference. The concentration of the complexes remained constant in relation to the transfection experiments.

| Substance | hydrodynamic diameters, pMAXGFP (-) [1] | PDI (polydispersity index), pMAXGFP (-) [1] | PDI (polydispersity index), pMAXGFP (+) [1] | hydrodynamic diameters, pMAXGFP (+) [1] | average fluorescence of spheroids (GFP production), N/P ratio 1.5:1 ([2]; compound 0.61 µM, plasmid 0.46 nM, 5 h incubation then 72 h culture, mean, n = 3) [arbitrary units] | average fluorescence of spheroids (GFP production), N/P ratio 3:1 ([2]; compound 1.21 µM, plasmid 0.46 nM, 5 h incubation then 72 h culture, mean, n = 3) | transfection efficacy ranking (GFP fluorescence), N/P ratio 9:1 ([2]; compound 3.64 µM, plasmid 0.46 nM, 5 h incubation then 72 h culture) | concentration up to which viability is not suppressed compared to non-treated cells (3D spheroids, ATP) [3] | stability of compound and compound-DNA complex: change of UV spectra over time [4] | transfection efficacy ranking (GFP fluorescence), N/P ratio 1.5:1 ([2]; compound 0.61 µM, plasmid 0.46 nM, 5 h incubation then 72 h culture) | transfection efficacy ranking across all N/P series (1.5:1, 3:1, 9:1) ([2]; pmaxGFP) |
| --- | --- | --- | --- | --- | --- | --- | --- | --- | --- | --- | --- |
| C2H3O-O2Oc-[Dap(GO2)]8-O2Oc-NH2 [compound 1] | 309,0 ± 56,2 nm | 25,5 ± 2,9% | 30,1 ± 1,7% | 5580,7 ± 321,2 nm | ~150 | around 200 arbitrary units | superior fluorescence | up to 5 µM |  |  |  |
| C4H7O-O2Oc-[Dap(GO2)]8-O2Oc-NH2 [compound 2] | 337,2 ± 28,6 nm | 27,8 ± 1,5% | 30,6 ± 2,5% | 4761,0 ± 190,1 nm |  |  |  |  |  |  |  |
| C6H11O-O2Oc-[Dap(GO2)]8-O2Oc-NH2 [compound 3] | 599,5 ± 80,8 nm | 23,5 ± 2,4% | 30,7 ± 2,6% | 3006,0 ± 133,9 nm |  |  |  |  |  |  |  |
| C8H15O-O2Oc-[Dap(GO2)]8-O2Oc-NH2 [compound 4] | 508,9 ± 62,2 nm | 24,4 ± 2,3% | 29,4 ± 2,5% | 3446,7 ± 208,5 nm |  |  |  |  | do not show significant changes over time |  |  |
| C10H19O-O2Oc-[Dap(GO2)]8-O2Oc-NH2 [compound 5] | 240,6 ± 36,9 nm | 24,9 ± 2,2% | 34,3 ± 4,2% | 4605,7 ± 90,9 nm |  |  |  |  |  |  |  |
| C12H23O-O2Oc-[Dap(GO2)]8-O2Oc-NH2 [compound 6] | 337,4 ± 17,7 nm | 23,2 ± 2,8% | 24,2 ± 1,6% | 283,7 ± 5,9 nm |  |  |  |  |  |  |  |
| C14H27O-O2Oc-[Dap(GO2)]8-O2Oc-NH2 [compound 7] | 373,5 ± 59,7 nm | 25,6 ± 3,2% | 21,2 ± 2,4% | 135,0 ± 3,2 nm |  |  |  |  |  |  |  |
| C16H31O-O2Oc-[Dap(GO2)]8-O2Oc-NH2 [compound 8] | 517,6 ± 63,3 nm | 24,8 ± 1,9% | 26,3 ± 2,9% | 308,7 ± 22,7 nm |  |  |  |  |  | greatest fluorescence |  |
| H-O2Oc-[Dap(GO2)]8-O2Oc-NH2 [1a, reference compound] | 329,1 ± 39,3 nm | 18,3 ± 1,5% | 29,9 ± 2,8% | 2235,3 ± 48,0 nm |  |  |  |  |  |  | lowest in each series |
